Columns and labels:
normal rats = assay: Blood pressures and heart rates in normal rats; assay type: in vivo, rat; details: 0.3 mg/kg, oral
Description: The blood pressures and heart rates of female Wistar rats were measured in accordance with the following procedure. On the day of measurement, indwelling of catheters for blood pressure•heart rate measurement was carried out under anesthesia with ether. The back of the neck of each rat was incised; a feeding catheter (Atom Medical Corporation) filled with heparinized physiological saline was introduced from the back of the neck; the catheter was inserted into the common carotid artery; and the surgical incision was closed. The measurements were carried out in a Bollmann cage under the conscious state, and the evaluations were carried out after confirming that the individual parameters were stabilized. After confirming the stabilization of blood pressure and heart rate, the test compound which was prepared using injectable water containing equimolar NaOH was orally administered at a dose of 5 mL/kg.
The catheter drawn from the back of the neck was connected to a pressure transducer (DX-200, NIHON KOHDEN CORP.), and the blood pressures and heart rates were measured using an amplifier for pressure measurement (Gould Instrument). The blood pressures and heart rates were recorded using a recorder (LINEARCORDERWR3320, GRAPHTEC). For each individual, rates of increase and decrease in average blood pressure and heart rate before administration and 30, 60, 120, and 180 min after administration were calculated with respect to the values of each individual before administration. Changes in blood pressure and heart rate before and after administration of the test compound were evaluated.

[1] = Systemic clearance after intravenous administration; assay type: in vivo; details: plasma, cynomolgus monkey, 0.001 mg/mL/kg
Description: Equimolar sodium hydroxide and injectable distilled water were added to each of the test compounds to prepare a 1 mg/mL aqueous solution. The aqueous solution was diluted with physiological saline until the concentration reached 0.001 mg/mL and was rapidly administered at a dose of 0.001 mg/mL/kg to cynomolgus monkey through the cephalic vein. Via heparinized syringes, 2 min, 5 min, 15 min, 30 min, 1 hr, 2 hr, 4 hr, 6 hr, 8 hr and 24 hr after administration, blood was drawn from the cephalic vein (non-administered sites). After centrifugation, blood plasma was sampled and stored at −80° C. before pretreatment. The blood plasma was pretreated by mixing with acetonitrile and centrifuging to remove proteins followed by measurement by LC/MS/MS. Changes of concentration in blood plasma was analyzed using WinNonlin4.0.1 to evaluate the systemic clearance of the test compound.

[2] = test system: urinary excretion dysfunction models; assay: Urinary excretion dysfunction models, maximal urinary flow rate; assay type: in vivo; details: 60 ng/kg/h continuous intravenous, cynomolgus monkey urinary excretion dysfunction model
Description: Urinary excretion dysfunction models were constructed in accordance with the following procedure. After anesthesia of cynomolgus monkeys, the region from the suprapubic area to the abdominal area was shaved, followed by fixing in a dorsal position. The shaved region was disinfected and the four legs were fixed. Using an electrosurgical knife, the skin region from the suprapubic area to the umbilical area and the peritoneal membrane were sequentially incised, followed by damage to the pelvic nerve and removal of the uterus. After the surgical operation, viccillin-containing physiological saline was added dropwise to the incised area. The peritoneal membrane and skin of the incised area were sutured with silk threads and disinfected. Viccillin was administered for 7 consecutive days after surgery. Meloxicam was administered once daily for 7 consecutive days to manage pain in the perioperative period.
The cynomolgus monkeys were seated on monkey chairs, followed by retention of the hands and legs with strings. Injectable water was administered orally, and physiological saline and the test compound (60 ng/kg/h) were continuously administered intravenously to allow urination freely. The maximal urinary flow rate was measured using a urine weighing sensor.

Compound: C=CCC[C@](C)(O)C/C=C/[C@H]1CCC(=O)[C@@H]1CCSc1nc(C(=O)O)cs1 [Comparative compound D, 2-[(2-{(1R,2R)-2-[(1E,4S)-4-hydroxy-4-methyl-1,7-octadien-1-yl]-5-oxocyclopentyl}ethyl)thio]-1,3-thiazole-4-carboxylic acid]
- effect on the blood pressure (normal rats): tendency to decrease
- increase in heart rate (normal rats): about 20%
- clearance [1]: 23.9 mL/min/kg
- improvement in maximal urinary flow rate over the vehicle group [2]: 36%

Reference: patent US9150528B2, “Compound having detrusor muscle-contracting activity and urethral sphincter muscle-relaxing activity” (ONO PHARMACEUTICAL CO., LTD., priority 2009, dated 2015)
